Reference: BindingDB's records for doi:10.1021/jm00124a027 (Syntex Research, 1989)

Assay: Inhibition of thromboxane A2 synthetase as reduced ADP-induced aggregation of human platelet rich plasma in the presence of pig aortal microsomes

**Q.** Which IC50 does the source give for C/C(=C\c1ccc(Cn2ccnc2)[nH]1)C(=O)O here?
**A.** The IC50 was 9100 nM.

**Q.** With C/C(=C/c1ccc(Cc2cccnc2)n1-c1ccccc1)C(=O)O as the compound, how does the IC50 read?
**A.** The IC50 was 24000 nM.

**Q.** Which IC50 does the source give for C/C(=C/c1ccc(Cc2cccnc2)n1CC(C)(C)C)C(=O)O here?
**A.** The IC50 was 78000 nM.

**Q.** For COC(=O)[C@@H]1CC1c1ccc(Cn2ccnc2)n1C (some centres not stated), which IC50 is on record?
**A.** Its IC50 is 9100 nM.

**Q.** With C/C(=C/c1ccc(Cc2cccnc2)n1C)C(=O)O as the compound, how does the IC50 read?
**A.** The IC50 was 50 nM.

**Q.** Which IC50 does the source give for C/C(=C/c1ccc(Cn2ccnc2)n1C)C(=O)O here?
**A.** The IC50 was 1000 nM.

**Q.** Which IC50 does the source give for CCn1c(/C=C(/C)C(=O)O)ccc1Cc1cccnc1 here?
**A.** Its IC50 is 42 nM.

**Q.** With Cn1c(/C=C/C(=O)O)ccc1Cn1ccnc1 as the compound, how does the IC50 read?
**A.** Its IC50 is 3800 nM.

**Q.** For C/C(=C/c1cc(Cc2cccnc2)n(C(C)(C)C)c1)C(=O)O, which IC50 is on record?
**A.** The IC50 was 44 nM.

**Q.** Which IC50 does the source give for C/C(=C/c1ccc(Cc2cccnc2)n1C(C)C)C(=O)O here?
**A.** The IC50 was 2100 nM.

**Q.** For Cn1cc(/C=C/C(=O)O)cc1Cn1ccnc1, which IC50 is on record?
**A.** The IC50 was 4600 nM.

**Q.** For C/C(=C\c1cc(Cn2ccnc2)n(C)c1)C(=O)O, which IC50 is on record?
**A.** The IC50 was 1600 nM.
